The text below walks through data of paper PMC7469689, “Substituted 4,5′-Bithiazoles as Catalytic Inhibitors of Human DNA Topoisomerase IIα” (Journal of Chemical Information and Modeling, 2020).

Details of data set [1]: method as in doi:10.1039/jr9480002240. Particulars: first protonation on the ring nitrogen; cited from earlier work.
Data set [2] concerns the target T1, human topo IIα (Homo sapiens, UniProt P11388).
T1 construct: purchased Inspiralis (Norwich, U.K.)
The data set is described as follows: HTS relaxation assay of human topo IIα. In kind it is biochemical.

A short description of another data set: Solubility observations. The following applies: cell growth medium. In kind it is physicochemical.
The next data set addresses bacterial DNA gyrase. Also noted: method as in earlier work. The following applies: previous virtual screening campaign; cited from earlier work.
In the next data set the test system is HepG2 cells. As to the kind of experiment: MTS cytotoxicity assay, HepG2. In kind it is cell-based, human. The following applies: 24 h, one concentration (200, 100 or 50 μM by solubility), vs untreated control. An excerpt: (§1) We have determined the cytotoxicity of the compounds using the human breast cancer MCF-7 and human hepatocellular carcinoma HepG2 cancer cell lines by standard 3-(4,5-dimethylthiazol-2-yl)-5-(3-carboxymethoxyphenyl)-2-(4-sulfophenyl)-2H-tetrazolium (MTS) assay.[65] The two selected human cancer cell lines are representative and well-established systems for the cell-based evaluation of potential cancer drugs. Etoposide was again used as a positive control (PC). We performed initial screening of compounds 1–14 at one concentration.
(§2) Cytotoxic activity of studied compounds was determined in two human cancer cell lines: hepatocellular carcinoma (HepG2) and breast cancer (MCF-7) cells. Both cell lines were obtained from ATCC. […] After the exposure of cells to the tested compounds, their viability was determined using the MTS assay.
(§3) The cells were seeded at densities of 8000 and 7000 cells/well for HepG2 and MCF-7 cells, respectively, in 200 μL of complete growth medium onto 96-well microtiter plates (Nunc, Thermo Fisher Scientific, Waltham, MA) and were left overnight at 37 °C to attach. […] After 3 h incubation (37 °C, 5% CO2), the absorbance was determined at 490 nm using a spectrofluorometer Synergy MX (BioTek, Winooski, VT). […] Cell viability was calculated by comparing the optical density (OD) of the wells with exposed cells with the wells of solvent control cells, and the results are shown as percentage of cell viability ± SD. […] The EC50 values were determined utilizing nonlinear regression analysis available in GraphPad Prism 7.0 software. Statistically significant difference between control and treated groups was determined by one-way analysis of variance combined with Dunnett’s multiple comparison test.
A general note: Tetrazolium dyes change colour on reduction, which living cells bring about.

Another data set relates to MCF-7 cells. The data set is described as follows: MTS cytotoxicity assay, MCF-7. In kind it is cell-based, human. Particulars: 24 h, one concentration (200, 100 or 50 μM by solubility), vs untreated control.
Description: as §1, §2, §3

In data set [3] the target is T1, human topo IIα. The data set is described as follows: Human topo IIα-mediated cleavage assay. In kind it is biochemical. The following applies: for linear DNA formation in cleavage assay (in words): four concentrations. An excerpt: To determine whether compounds act as catalytic inhibitors, a cleavage assay was next performed for compounds 1 and 9.
We performed the assay in collaboration with Inspiralis (Norwich, U.K.).

In data set [4] the target is T1, human topo IIα. The data set is described as follows: Human topo IIα-mediated kDNA decatenation assay. In kind it is biochemical. The procedure: (§4) We made use of the human topo II decatenation assay kit from Inspiralis (Norwich, U.K.) to assess the ability of selected compounds to impede DNA decatenation.[89],[90] It was performed for topo IIα and topo IIβ isoforms using the protocol as described previously.[35]

The target of the next data set is T2, human topo IIβ (Homo sapiens, UniProt Q02880).
T2 construct: purchased Inspiralis (Norwich, U.K.)
As to the kind of experiment: Human topo IIβ-mediated kDNA decatenation assay. In kind it is biochemical. The procedure: We were also interested in whether compounds can act on both isoforms of the human topo II. Thus, we performed human topo IIβ decatenation assays for compounds 1 and 9. […] (see also Tables S5 and S6 for more details).
as §4

The target in data set [5] is T1, human topo IIα. The data set is described as follows: ATPase activity (ATP hydrolysis) assay, pyruvate kinase/lactate dehydrogenase coupled. In kind it is biochemical.
Setting [6] is: 500 μM (compound 1: solubility problems, erratic readings).

T1 sequence (P11388 whole entry): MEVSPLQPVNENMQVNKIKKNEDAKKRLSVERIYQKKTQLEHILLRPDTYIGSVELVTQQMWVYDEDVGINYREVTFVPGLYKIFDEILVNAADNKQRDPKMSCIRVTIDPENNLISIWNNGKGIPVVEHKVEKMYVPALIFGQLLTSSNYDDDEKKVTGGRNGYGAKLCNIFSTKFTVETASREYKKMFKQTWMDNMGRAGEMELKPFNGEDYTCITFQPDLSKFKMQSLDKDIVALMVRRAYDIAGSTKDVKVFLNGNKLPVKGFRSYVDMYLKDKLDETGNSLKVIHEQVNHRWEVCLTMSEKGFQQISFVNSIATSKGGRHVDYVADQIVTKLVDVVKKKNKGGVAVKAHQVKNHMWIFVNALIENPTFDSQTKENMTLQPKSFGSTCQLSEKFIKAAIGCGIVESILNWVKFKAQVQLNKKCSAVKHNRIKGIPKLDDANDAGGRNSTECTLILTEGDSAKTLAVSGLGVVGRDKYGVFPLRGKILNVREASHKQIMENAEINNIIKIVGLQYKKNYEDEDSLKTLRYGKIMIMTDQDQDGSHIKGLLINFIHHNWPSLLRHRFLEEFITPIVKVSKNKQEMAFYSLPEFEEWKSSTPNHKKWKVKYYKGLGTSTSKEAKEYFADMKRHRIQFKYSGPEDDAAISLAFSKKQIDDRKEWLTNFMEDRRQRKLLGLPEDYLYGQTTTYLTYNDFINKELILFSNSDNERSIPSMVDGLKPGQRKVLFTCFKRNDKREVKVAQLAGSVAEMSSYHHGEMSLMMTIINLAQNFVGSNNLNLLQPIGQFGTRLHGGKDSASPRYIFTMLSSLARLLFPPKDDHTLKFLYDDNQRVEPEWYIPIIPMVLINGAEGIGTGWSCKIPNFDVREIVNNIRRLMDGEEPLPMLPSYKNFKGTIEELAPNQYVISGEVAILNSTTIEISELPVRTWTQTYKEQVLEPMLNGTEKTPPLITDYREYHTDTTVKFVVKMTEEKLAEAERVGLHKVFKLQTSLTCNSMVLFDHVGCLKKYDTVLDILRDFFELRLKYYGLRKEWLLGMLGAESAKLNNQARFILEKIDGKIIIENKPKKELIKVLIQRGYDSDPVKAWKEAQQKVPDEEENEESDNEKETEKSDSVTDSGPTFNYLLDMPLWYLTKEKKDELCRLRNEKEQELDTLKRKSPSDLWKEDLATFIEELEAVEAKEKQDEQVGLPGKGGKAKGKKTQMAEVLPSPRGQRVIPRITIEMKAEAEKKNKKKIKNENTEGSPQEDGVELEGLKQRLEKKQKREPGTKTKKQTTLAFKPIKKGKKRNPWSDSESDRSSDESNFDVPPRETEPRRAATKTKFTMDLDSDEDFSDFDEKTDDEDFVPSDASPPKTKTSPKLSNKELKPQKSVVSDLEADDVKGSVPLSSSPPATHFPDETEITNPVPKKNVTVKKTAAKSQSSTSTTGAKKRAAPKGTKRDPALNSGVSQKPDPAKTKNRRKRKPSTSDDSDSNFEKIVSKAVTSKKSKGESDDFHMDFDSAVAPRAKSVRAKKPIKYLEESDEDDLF
T2 sequence (Q02880 whole entry): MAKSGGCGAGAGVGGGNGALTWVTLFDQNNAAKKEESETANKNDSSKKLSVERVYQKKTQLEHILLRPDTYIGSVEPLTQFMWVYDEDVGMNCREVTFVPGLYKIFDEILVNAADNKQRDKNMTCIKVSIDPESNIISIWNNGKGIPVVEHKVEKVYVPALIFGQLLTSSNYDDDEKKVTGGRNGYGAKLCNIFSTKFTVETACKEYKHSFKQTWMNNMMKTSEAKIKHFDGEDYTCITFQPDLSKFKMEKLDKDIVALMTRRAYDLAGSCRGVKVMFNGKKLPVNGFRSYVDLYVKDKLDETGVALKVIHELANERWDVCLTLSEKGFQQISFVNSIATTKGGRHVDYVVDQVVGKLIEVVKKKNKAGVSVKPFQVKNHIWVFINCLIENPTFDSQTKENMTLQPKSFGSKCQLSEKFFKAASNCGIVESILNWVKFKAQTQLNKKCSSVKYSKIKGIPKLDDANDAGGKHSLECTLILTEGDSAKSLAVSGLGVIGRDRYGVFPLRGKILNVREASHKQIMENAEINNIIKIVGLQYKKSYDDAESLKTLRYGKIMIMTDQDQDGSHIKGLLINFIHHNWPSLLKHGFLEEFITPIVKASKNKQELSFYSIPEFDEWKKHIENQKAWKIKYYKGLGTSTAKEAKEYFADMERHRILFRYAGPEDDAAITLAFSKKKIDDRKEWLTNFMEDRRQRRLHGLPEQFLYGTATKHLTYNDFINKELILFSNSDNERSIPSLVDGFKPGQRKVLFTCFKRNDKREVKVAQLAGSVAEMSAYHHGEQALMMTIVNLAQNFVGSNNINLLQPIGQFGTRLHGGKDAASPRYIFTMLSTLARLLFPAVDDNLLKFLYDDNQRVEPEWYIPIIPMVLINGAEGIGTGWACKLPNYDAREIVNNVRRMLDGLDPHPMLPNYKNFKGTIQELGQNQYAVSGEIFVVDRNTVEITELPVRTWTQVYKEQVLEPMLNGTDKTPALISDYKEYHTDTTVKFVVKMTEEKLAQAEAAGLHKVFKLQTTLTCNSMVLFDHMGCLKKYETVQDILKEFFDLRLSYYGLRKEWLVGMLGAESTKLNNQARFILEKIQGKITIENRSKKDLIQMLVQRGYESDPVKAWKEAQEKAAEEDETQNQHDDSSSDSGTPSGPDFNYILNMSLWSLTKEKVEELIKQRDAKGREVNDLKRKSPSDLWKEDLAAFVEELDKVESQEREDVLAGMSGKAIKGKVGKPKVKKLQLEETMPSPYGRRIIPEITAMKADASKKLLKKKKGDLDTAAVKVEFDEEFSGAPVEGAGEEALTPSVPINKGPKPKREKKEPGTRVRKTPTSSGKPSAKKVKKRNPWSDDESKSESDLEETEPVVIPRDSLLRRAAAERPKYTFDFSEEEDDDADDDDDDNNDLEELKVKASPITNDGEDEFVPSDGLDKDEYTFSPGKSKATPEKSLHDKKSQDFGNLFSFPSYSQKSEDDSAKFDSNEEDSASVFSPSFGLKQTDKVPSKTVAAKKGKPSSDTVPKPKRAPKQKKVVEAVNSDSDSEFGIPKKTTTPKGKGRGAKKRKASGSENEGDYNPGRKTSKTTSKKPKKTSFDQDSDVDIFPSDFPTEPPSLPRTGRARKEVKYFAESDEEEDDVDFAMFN

The pKa is the pH at which an ionisable group is half protonated. With `Nc1nccs1` [2-aminothiazole], the pKa in data set [1] is 5.4.

The term IC50 denotes the concentration that gives 50% inhibition. At human topo IIα [2], `Cc1cc(O)ccc1Nc1nc(-c2sc(N)nc2C)cs1` [Compound 2] gave an IC50 of 35.8 µM.

The molecule `CC(=O)c1ccc(Nc2nc(-c3sc(N)nc3C)cs2)cc1` [Compound 3] returned an IC50 against human topo IIα [2] of 222 µM. The “solubility in the cell growth medium” value in “Solubility observations” is reported as “low solubility”.

For the molecule `Cc1cc(NS(=O)(=O)c2ccc(Nc3nc(-c4sc(N)nc4C)cs3)cc2)no1` [Compound 4], on human topo IIα [2], the IC50 was 30.1 µM.

Regarding `Cc1nc(N)sc1-c1csc(Nc2ccc(S(N)(=O)=O)cc2)n1` [Compound 5], the values for the IC50 on human topo IIα [2] and at bacterial DNA gyrase were 70.1 µM and 8.2 µM, respectively.

Regarding `Cc1nc(N)sc1-c1csc(Nc2ccc(C(=O)O)c(O)c2)n1` [Compound 6], the “reduction of cell viability, initial cytotoxicity screening” value (shortened to “reduction of cell viability”) in the data set on HepG2 cells and with MCF-7 cells was “no or only minor effects” each time. Further, the IC50 is 37.7 µM against human topo IIα [2] and 67 µM at bacterial DNA gyrase.

Molecule `CC(=O)Nc1nc(C)c(-c2csc(Nc3cccc(O)c3)n2)s1` [Compound 7] gave an IC50 against human topo IIα [2] of 33.7 µM.

On to `CC(=O)Nc1nc(C)c(-c2csc(Nc3ccc(C(=O)O)cc3)n2)s1` [Compound 8], for which the “reduction of cell viability” value with HepG2 cells and in the data set with MCF-7 cells was “no or only minor effects” in each case. Also, the IC50 was 120 µM on human topo IIα [2] and 5.5 µM at bacterial DNA gyrase.

Consider `CC(=O)Nc1ccc(Nc2nc(-c3sc(NC(C)=O)nc3C)cs2)cc1` [Compound 9], for which, at human topo IIα [2], it took 60 µM to reach half-maximal inhibition (IC50). The “% Linear DNA (first column)” value at human topo IIα [3] (3.9 μM) is listed as 5.49%; at human topo IIα [3] (31.5 μM) it was 7.77%; on human topo IIα [3] (125 μM), 4.84%; on human topo IIα [3] (500 μM), 2.95%. In addition, the “% Linear DNA (second column)” value on human topo IIα [3] (3.9 μM) was 7.03%; on human topo IIα [3] (31.5 μM), 6.75%; on human topo IIα [3] (125 μM) it was 4.60%; at human topo IIα [3] (500 μM), 2.25%. Besides, the “linear DNA formation in cleavage assay (in words)” value at human topo IIα [3] was “did not reveal a significant amount of linear DNA above the background level”.

For orientation: inhibition means how much of the control response was suppressed. For the molecule `COc1ccc(Nc2nc(-c3sc(NC(C)=O)nc3C)cs2)cc1` [Compound 10], the half-maximal inhibitory concentration (IC50) against human topo IIα [2] was found to be 22.7 µM. This molecule showed an inhibition at 125 µM against human topo IIα [4] (125 μM) of 26%. For the same molecule, the inhibition at 500 µM against human topo IIα [4] (500 μM) is 64%.

Consider `CC(=O)Nc1nc(C)c(-c2csc(Nc3cccc(C(=O)O)c3)n2)s1` [Compound 11], for which the “reduction of cell viability” value in the data set with HepG2 cells and in the data set on MCF-7 cells was “no or only minor effects” each time. In addition, the IC50 against human topo IIα [2] amounted to 134 µM.

As for `CC(=O)Nc1nc(C)c(-c2csc(Nc3ccc(O)cc3)n2)s1` [Compound 12], the figures for the half-maximal inhibitory concentration (IC50) against human topo IIα [2] and on bacterial DNA gyrase were 193 µM and 30 µM, respectively.

Consider `CCC(=O)Nc1nc(C)c(-c2csc(Nc3ccc(C(=O)O)cc3)n2)s1` [Compound 13], for which the concentration for half-maximal inhibition (IC50) against human topo IIα [2] is 123 µM; at bacterial DNA gyrase, 1.1 µM.

With `CC(=O)Nc1nc(C)c(-c2csc(Nc3ccccc3)n2)s1` [Compound 14], 357 µM corresponded to half-maximal inhibition on human topo IIα [2] (IC50).

Turning to `COc1cc([C@@H]2c3cc4c(cc3[C@@H](O[C@@H]3O[C@@H]5CO[C@@H](C)O[C@H]5[C@H](O)[C@H]3O)[C@H]3COC(=O)[C@H]23)OCO4)cc(OC)c1O` [etoposide, reference compound], at human topo IIβ (3.9 μM), the “% Decatenated Average” value is listed as 100.0%. The “% Decatenated Assay 1” value at human topo IIβ (500 μM) turned out to be 15.0%. For the same molecule, the “Percentage ATPase activity Run 1” value came to 52.71% at human topo IIα [5] (3.9 μM), 36.43% on human topo IIα [5] (31.5 μM), 30.23% at human topo IIα [5] (125 μM) and 0% on human topo IIα [5] (setting [6]). Further, the “Percentage ATPase activity Run 2” value on human topo IIα [5] (3.9 μM) worked out at 51.94%; at human topo IIα [5] (31.5 μM) it was 37.21%; at human topo IIα [5] (125 μM), 37.21%; on human topo IIα [5] (setting [6]), 4.65%. Further, the “% Linear DNA (first column)” value at human topo IIα [3] (3.9 μM) is listed as 22.76%; at human topo IIα [3] (31.5 μM), 33.00%; on human topo IIα [3] (125 μM), 45.35%; on human topo IIα [3] (500 μM) it was 43.03%. Besides, the “% Linear DNA (second column)” value came to 11.88% at human topo IIα [3] (3.9 μM), 36.26% on human topo IIα [3] (31.5 μM), 36.91% at human topo IIα [3] (125 μM) and 48.40% on human topo IIα [3] (500 μM). Also, the “linear DNA formation in cleavage assay (in words)” value at human topo IIα [3] is “poison activity”.

With `CO[C@@H]1[C@@H](OC(N)=O)[C@@H](O)[C@H](Oc2ccc3c(O)c(NC(=O)c4ccc(O)c(CC=C(C)C)c4)c(=O)oc3c2C)OC1(C)C` [novobiocin, reference compound], at human topo IIα [5] (10 μM control), the “Rate ATPase activity” value was 0.14 µmol/min.
